Data published in PubChem BioAssay AID330 (DTP/NCI, 2004).
“And” between values parts separate entries of the source, which are not always exact repeats. Identical values can stand only once. Inconclusive results and toxic doses are left out. The calls were made as follows: active = survival T/C of 150% or more; inactive = T/C below 125% in these data.

Tested on: P388 leukemia ip, CD2F1 mice, survival T/C
Assay: NCI In Vivo Anticancer Drug Screen. Data for tumor model P388 Leukemia (intraperitoneal) in CD2F1 (CDF1) mice
Conditions: endpoint: median survival time, higher = longer survival
Method in brief: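 Mice carrying the transplanted tumor received test compound or vehicle. Survival was recorded in each group, and the value is the treated-group measurement divided by that of the vehicle-treated control group.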

[1] = dose: 50.0 mg/kg/injection, schedule: Q01DX005 (ip), vehicle: saline with Tween-80
[2] = dose: 25.0 mg/kg/injection, schedule: Q01DX009 (ip), vehicle: saline with Tween-80
[3] = dose: 50.0 mg/kg/injection, schedule: Q01DX009 (ip), vehicle: saline with Tween-80
[4] = dose: 100.0 mg/kg/injection, schedule: Q01DX009 (ip), vehicle: saline with Tween-80
[5] = dose: 200.0 mg/kg/injection, schedule: Q01DX009 (ip), vehicle: saline with Tween-80
[6] = dose: 60.0 mg/kg/injection, schedule: Q01DX005 (ip), vehicle: saline with Tween-80
[7] = dose: 120.0 mg/kg/injection, schedule: Q01DX005 (ip), vehicle: saline with Tween-80
[8] = dose: 240.0 mg/kg/injection, schedule: Q01DX005 (ip), vehicle: saline with Tween-80
[9] = dose: 100.0 mg/kg/injection, schedule: Q01DX005 (ip), vehicle: saline with Tween-80
[10] = dose: 200.0 mg/kg/injection, schedule: Q01DX005 (ip), vehicle: saline with Tween-80

Measured: T/C

O=C1C=Cc2ccc(O)cc2C1=O
inactive: dose: 1.25 mg/kg/injection, schedule: Q01DX009 (ip), vehicle: saline 100 % of control | dose: 1.25 mg/kg/injection, schedule: Q04DX003 (ip), vehicle: saline with Tween-80 90 % of control | dose: 2.5 mg/kg/injection, schedule: Q01DX009 (ip), vehicle: saline 110 % of control | dose: 2.5 mg/kg/injection, schedule: Q04DX003 (ip), vehicle: saline with Tween-80 109 % of control | dose: 5.0 mg/kg/injection, schedule: Q04DX003 (ip), vehicle: saline with Tween-80 109 % of control and 95 % of control

C[C@H](CSC(=O)c1ccccc1)C(=O)N1c2ccccc2C[C@H]1C(=O)O
inactive: dose: 60.0 mg/kg/injection, schedule: Q01DX005 (ip), vehicle: saline + Tween-80 + alcohol 102 % of control | dose: 120.0 mg/kg/injection, schedule: Q01DX005 (ip), vehicle: saline + Tween-80 + alcohol 102 % of control | dose: 240.0 mg/kg/injection, schedule: Q01DX005 (ip), vehicle: saline + Tween-80 + alcohol 104 % of control

C=CC1CCC[S+]1CC(=O)OCC (configuration not stated)
inactive: dose: 12.5 mg/kg/injection, schedule: Q01DX005 (ip), vehicle: saline with Tween-80 100 % of control | dose: 25.0 mg/kg/injection, schedule: Q01DX005 (ip), vehicle: saline with Tween-80 105 % of control | [1] 102 % of control and 107 % of control

O=C(O)c1ccccc1C(c1ccccc1)c1ccccc1
inactive: [2] 100 % of control | [3] 100 % of control | [4] 100 % of control

O=c1cc(O)n2ncnc2[nH]1
inactive: [2] 101 % of control | [3] 104 % of control | [4] 104 % of control | [5] 99 % of control

CC1(N)C(=O)NC(=O)c2cnccc21 (configuration not stated)
inactive: dose: 100.0 mg/kg/injection, schedule: Q01DX001 (ip), vehicle: saline 104 % of control | dose: 200.0 mg/kg/injection, schedule: Q01DX001 (ip), vehicle: saline 107 % of control | dose: 400.0 mg/kg/injection, schedule: Q01DX001 (ip), vehicle: saline 97 % of control

COC(=O)C1=[N+]([O-])OC(C(=O)OC)C1c1ccc(F)cc1 (configuration not stated)
inactive: [6] 93 % of control | [7] 90 % of control | [8] 94 % of control

C=C1[C@@H](OC(C)=O)C[C@@H]2C[C@]3(C)C(OC(C)=O)CC(C)(C)[C@@H]3C12O (some centres not stated)
inactive: dose: 1.75 mg/kg/injection, schedule: Q01DX005 (ip), vehicle: saline 98 % of control | dose: 3.5 mg/kg/injection, schedule: Q01DX005 (ip), vehicle: saline 100 % of control | dose: 7.0 mg/kg/injection, schedule: Q01DX005 (ip), vehicle: saline 97 % of control

CCN(CC)Cc1cc(N=Nc2ccc3c(c2)c2ccccc2n3CC)c2ccccc2c1O
inactive: [3] 86 % of control | [4] 93 % of control | [5] 93 % of control

CSC1=Nc2cc3c(cc2C(=O)N2CC(OC(C)=O)CC12)OCO3 (configuration not stated)
inactive: [1] 98 % of control | [9] 99 % of control | [10] 97 % of control

N#C/C=C/C#N
inactive: dose: 0.15 mg/kg/injection, schedule: Q01DX009 (ip), vehicle: saline 100 % of control | dose: 0.3 mg/kg/injection, schedule: Q01DX009 (ip), vehicle: saline 109 % of control | dose: 0.6 mg/kg/injection, schedule: Q01DX009 (ip), vehicle: saline 113 % of control

CCCc1c2cc(OC)c(OC)cc2cc2c3cc(OC)c(OC)cc3cc[n+]12 (tested in a mixture with another compound)
inactive: [2] 102 % of control | [3] 111 % of control | [4] 109 % of control

NC(=N\N=C\C(O)C(O)C(O)C(O)C(=O)O)/C(N)=N/N=C/C(O)C(O)C(O)C(O)C(=O)O (configuration not stated)
inactive: dose: 50.0 mg/kg/injection, schedule: Q01DX005 (ip), vehicle: saline 101 % of control | dose: 100.0 mg/kg/injection, schedule: Q01DX005 (ip), vehicle: saline 104 % of control | dose: 200.0 mg/kg/injection, schedule: Q01DX005 (ip), vehicle: saline 101 % of control

C1=CNc2ccccc2N=C1
inactive: dose: 50.0 mg/kg/injection, schedule: Q01DX009 (ip), vehicle: saline 103 % of control | dose: 100.0 mg/kg/injection, schedule: Q01DX009 (ip), vehicle: saline 112 % of control | dose: 200.0 mg/kg/injection, schedule: Q01DX009 (ip), vehicle: saline 99 % of control

O=S(=O)(Cc1ccccc1)/N=C/c1ccccc1
inactive: [3] 103 % of control and 105 % of control | [4] 99 % of control and 105 % of control | [5] 107 % of control and 123 % of control

CNC(=O)OCc1c(C)oc(-c2ccc(Cl)c(Cl)c2)c1COC(=O)NC
inactive: dose: 25.0 mg/kg/injection, schedule: Q01DX009 (ip), vehicle: distilled water + Tween-80 102 % of control | dose: 50.0 mg/kg/injection, schedule: Q01DX009 (ip), vehicle: distilled water + Tween-80 97 % of control | dose: 100.0 mg/kg/injection, schedule: Q01DX009 (ip), vehicle: distilled water + Tween-80 97 % of control | dose: 200.0 mg/kg/injection, schedule: Q01DX009 (ip), vehicle: distilled water + Tween-80 91 % of control | dose: 400.0 mg/kg/injection, schedule: Q01DX009 (ip), vehicle: distilled water + Tween-80 90 % of control

Cc1cc(C)c(SSc2nnnn2C)c(C)c1
inactive: dose: 50.0 mg/kg/injection, schedule: Q01DX009 (ip), vehicle: Klucel (hydroxypropylcellulose) (HPC) 100 % of control | dose: 100.0 mg/kg/injection, schedule: Q01DX009 (ip), vehicle: Klucel (hydroxypropylcellulose) (HPC) 90 % of control

O=C(CCl)Nc1nccs1
inactive: dose: 12.5 mg/kg/injection, schedule: Q01DX009 (ip), vehicle: saline with Tween-80 111 % of control | [2] 112 % of control | [3] 103 % of control | [4] 116 % of control

O=C1C=CC2=Cc3ccccc3CN12
inactive: [6] 100 % of control | [7] 100 % of control | [8] 100 % of control

CCOC(CN=Cc1cc(C)c2[nH]c3ccccc3c2c1C)OCC
inactive: [1] 97 % of control | [9] 102 % of control | [10] 102 % of control

O=[N+]([O-])c1ccc(-c2nnn(Cc3ccco3)c2N2CCCCC2)cc1
inactive: dose: 50.0 mg/kg/injection, schedule: Q01DX005 (ip), vehicle: Klucel (hydroxypropylcellulose) (HPC) 105 % of control | dose: 100.0 mg/kg/injection, schedule: Q01DX005 (ip), vehicle: Klucel (hydroxypropylcellulose) (HPC) 105 % of control | dose: 200.0 mg/kg/injection, schedule: Q01DX005 (ip), vehicle: Klucel (hydroxypropylcellulose) (HPC) 107 % of control

COc1cc(C2c3cc(OS(=O)(=O)c4ccc(C)cc4)c(OC)cc3CC3C(=O)OCC32)ccc1OS(=O)(=O)c1ccc(C)cc1 (configuration not stated)
inactive: [1] 91 % of control and 92 % of control | [9] 91 % of control | [10] 91 % of control

COc1ccc([Si](C)(C)CNCCSS(=O)(=O)O)cc1
inactive: [3] 90 % of control | [4] 95 % of control | [5] 90 % of control

c1ccc2c3c([nH]c2c1)CCN1CCN(CCc2ccncc2)CC31 (configuration not stated)
inactive: dose: 100.0 mg/kg/injection, schedule: Q04DX002 (ip), vehicle: Klucel (hydroxypropylcellulose) (HPC) 100 % of control | dose: 200.0 mg/kg/injection, schedule: Q04DX002 (ip), vehicle: Klucel (hydroxypropylcellulose) (HPC) 101 % of control | dose: 400.0 mg/kg/injection, schedule: Q04DX002 (ip), vehicle: Klucel (hydroxypropylcellulose) (HPC) 96 % of control

CSc1nc(C)c(C(=O)CCN2CCN(c3ccccn3)CC2)s1
inactive: dose: 60.0 mg/kg/injection, schedule: Q01DX005 (ip), vehicle: saline 104 % of control | dose: 120.0 mg/kg/injection, schedule: Q01DX005 (ip), vehicle: saline 113 % of control

COC1=NC2(C)C(C)=C(c3ccccc3)C1(C)c1ccccc12 (configuration not stated)
inactive: [6] 100 % of control | [7] 98 % of control | [8] 99 % of control
